According to PMC11855478, “Bicyclic N,S-Acetals Containing Fused Cysteine-Amide System as New Heterocyclic Class Targeting Human Farnesyltransferase (FTase-h)” (International Journal of Molecular Sciences, 2025):

Key:
[1] = test system: panel of 60 human cancer cell lines; experiment: NCI 60 cell panel one dose screen (whole panel); type: cell-based; parameters: Delta (One Dose Mean Graph): unit not given here; conditions: 1.00E-5 Molar one dose; for Range (One Dose Mean Graph): in % (unit assumed); for Mean Growth Percent: mean over tested cell lines
Description: (§1) 3.4. Cell Proliferation Assay
Selected compounds were tested on a panel of 60 human cancer cell lines at the National Cancer Institute (NCI), Germantown, MD, USA. The cytotoxicity studies were conducted using a 48 h exposure protocol using the sulfo-rhodamine B assay. […]
X. NCI One Dose Mean Graph of sulfides 4a(A -J) and 4b(A-J)
The entire series of sulfides regrouping twenty synthesized FTI-candidates (4aA-J, 4bA-J) were selected by the National Cancer Institute (NCI) for evaluation of their antiproliferative activity against 60 cancer cell lines (see the followings twenty pages for full evaluation reports). […]
inhibiting 36% of the NCI-H522 cells. Such difference between IC50 on human FTase in the nanomolar range and IC50 on cancer cell growth in the micromolar range is characteristic to potent FTIs and was reported previously on different series of compounds (see for example ref erence in the references part […]
Of interest, none of the tested compounds at a high single dose (10 µM) in the full NCI 60 cell panel has shown a cytotoxic profile. […]
inhibitory potential on FTase raise good hope for further investigation of these series as agents fighting

KM12 (Colon Cancer) = experiment: NCI one dose, KM12; type: cell-based, human; conditions: KM12, 1.00E-5 Molar one dose
Description: as §1
(§2) Selected compounds were tested on a panel of 60 human cancer cell lines at the National Cancer Institute (NCI), Germantown, MD, USA. The cytotoxicity studies were conducted using a 48 h exposure protocol using the sulfo-rhodamine B assay.

U251 (CNS Cancer) = experiment: NCI one dose, U251; type: cell-based, human; conditions: U251, 1.00E-5 Molar one dose
Description: as §1, §2

[2] = test system: MDA-MB-231/ATCC (Breast Cancer); experiment: NCI one dose, MDA-MB-231/ATCC; type: cell-based, human; conditions: 1.00E-5 Molar one dose
Description: as §1, §2

MALME-3M (Melanoma) = experiment: NCI one dose, MALME-3M; type: cell-based, human; conditions: 1.00E-5 Molar one dose
Description: as §1, §2

OVCAR-8 (Ovarian Cancer) = experiment: NCI one dose, OVCAR-8; type: cell-based, human; conditions: OVCAR-8, 1.00E-5 Molar one dose
Description: as §1, §2

[3] = test system: NCI-H460 (Non-Small Cell Lung Cancer); experiment: NCI one dose, NCI-H460; type: cell-based, human; conditions: NCI-H460, 1.00E-5 Molar one dose
Description: as §1, §2

SF-539 (CNS Cancer) = experiment: NCI one dose, SF-539; type: cell-based, human; conditions: SF-539, 1.00E-5 Molar one dose
Description: as §1, §2

SF-268 (CNS Cancer) = experiment: NCI one dose, SF-268; type: cell-based, human; conditions: SF-268, 1.00E-5 Molar one dose
Description: as §1, §2

SR (Leukemia) = experiment: NCI one dose, SR; type: cell-based, human; conditions: 1.00E-5 Molar one dose
Description: as §1, §2

MOLT-4 (Leukemia) = experiment: NCI one dose, MOLT-4; type: cell-based, human; conditions: MOLT-4, 1.00E-5 Molar one dose
Description: as §1, §2

A498 (Renal Cancer) = experiment: NCI one dose, A498; type: cell-based, human; conditions: A498, 1.00E-5 Molar one dose
Description: as §1, §2

RXF 393 (Renal Cancer) = experiment: NCI one dose, RXF 393; type: cell-based, human; conditions: RXF 393, 1.00E-5 Molar one dose
Description: as §1, §2

PC-3 (Prostate Cancer) = experiment: NCI one dose, PC-3; type: cell-based, human; conditions: PC-3, 1.00E-5 Molar one dose
Description: as §1, §2

[4] = test system: NCI-H23 (Non-Small Cell Lung Cancer); experiment: NCI one dose, NCI-H23; type: cell-based, human; conditions: NCI-H23, 1.00E-5 Molar one dose
Description: as §1, §2

CAKI-1 (Renal Cancer) = experiment: NCI one dose, CAKI-1; type: cell-based, human; conditions: CAKI-1, 1.00E-5 Molar one dose
Description: as §1, §2

IGROV1 (Ovarian Cancer) = experiment: NCI one dose, IGROV1; type: cell-based, human; conditions: IGROV1, 1.00E-5 Molar one dose
Description: as §1, §2

RPMI-8226 (Leukemia) = experiment: NCI one dose, RPMI-8226; type: cell-based, human; conditions: RPMI-8226, 1.00E-5 Molar one dose
Description: as §1, §2

HCC-2998 (Colon Cancer) = experiment: NCI one dose, HCC-2998; type: cell-based, human; conditions: HCC-2998, 1.00E-5 Molar one dose
Description: as §1, §2

OVCAR-4 (Ovarian Cancer) = experiment: NCI one dose, OVCAR-4; type: cell-based, human; conditions: OVCAR-4, 1.00E-5 Molar one dose
Description: as §1, §2

TK-10 (Renal Cancer) = experiment: NCI one dose, TK-10; type: cell-based, human; conditions: TK-10, 1.00E-5 Molar one dose
Description: as §1, §2

786-0 (Renal Cancer) = experiment: NCI one dose, 786-0; type: cell-based, human; conditions: 786-0, 1.00E-5 Molar one dose
Description: as §1, §2

T-47D (Breast Cancer) = experiment: NCI one dose, T-47D; type: cell-based, human; conditions: 1.00E-5 Molar one dose
Description: as §1, §2

UO-31 renal cancer cells = experiment: NCI one dose, UO-31; type: cell-based, human; conditions: UO-31, 1.00E-5 Molar one dose
Description: as §1, §2

SK-MEL-5 (Melanoma) = experiment: NCI one dose, SK-MEL-5; type: cell-based, human; conditions: SK-MEL-5, 1.00E-5 Molar one dose
Description: as §1, §2

[5] = test system: A549/ATCC (Non-Small Cell Lung Cancer); experiment: NCI one dose, A549/ATCC; type: cell-based, human; conditions: 1.00E-5 Molar one dose
Description: as §1, §2

SMILES | Delta (One Dose Mean Graph) [1] | Range (One Dose Mean Graph) [1] | Mean Growth Percent [1] [%] | Growth Percent (KM12 (Colon Cancer)) [%] | Growth Percent (U251 (CNS Cancer)) [%] | Growth Percent [2] [%] | Growth Percent (MALME-3M (Melanoma)) [%] | Growth Percent (OVCAR-8 (Ovarian Cancer)) [%] | Growth Percent [3] [%] | Growth Percent (SF-539 (CNS Cancer)) [%] | Growth Percent (SF-268 (CNS Cancer)) [%] | Growth Percent (SR (Leukemia)) [%] | Growth Percent (MOLT-4 (Leukemia)) [%] | Growth Percent (A498 (Renal Cancer)) [%] | Growth Percent (RXF 393 (Renal Cancer)) [%] | Growth Percent (PC-3 (Prostate Cancer)) [%] | Growth Percent [4] [%] | Growth Percent (CAKI-1 (Renal Cancer)) [%] | Growth Percent (IGROV1 (Ovarian Cancer)) [%] | Growth Percent (RPMI-8226 (Leukemia)) [%] | other results
COc1ccccc1CNC(=O)[C@@H]1CS[C@H]2c3ccccc3C(=O)N12 [4aG] | 31.67 | 50.93 | 101.60 | 105.74 | 99.09 | 109.17 | 108.91 | 96.60 | 110.17 | 103.40 | 102.73 | 83.51 | 97.42 | 84.76 | 114.62 | 102.91 | 106.16 | 94.09 | 109.59 | 102.98 | Growth Percent (HCC-2998 (Colon Cancer)): 120.86%; Growth Percent (OVCAR-4 (Ovarian Cancer)): 106.91%; Growth Percent (TK-10 (Renal Cancer)): 90.98%; Growth Percent (786-0 (Renal Cancer)): 107.93%; Growth Percent (T-47D (Breast Cancer)): 98.98%; Growth Percent (UO-31 renal cancer cells): 94.39%; Growth Percent (SK-MEL-5 (Melanoma)): 103.84%; Growth Percent [5]: 78.79%
COc1ccc(CNC(=O)[C@@H]2CS[C@H]3c4ccccc4C(=O)N23)cc1OC [4aI] | 34.91 | 52.35 | 98.56 | 107.09 | 93.84 | 102.55 | 102.18 | 88.68 | 111.19 | 102.96 | 104.77 | 74.16 | 99.18 | 89.23 | 110.33 | 88.12 | 92.75 | 95.39 | 109.87 | 99.43 | Growth Percent (HCC-2998 (Colon Cancer)): 105.82%; Growth Percent (OVCAR-4 (Ovarian Cancer)): 111.31%; Growth Percent (TK-10 (Renal Cancer)): 87.34%; Growth Percent (786-0 (Renal Cancer)): 106.53%; Growth Percent (T-47D (Breast Cancer)): 85.94%; Growth Percent (UO-31 renal cancer cells): 94.41%; Growth Percent (SK-MEL-5 (Melanoma)): 102.31%; Growth Percent [5]: 74.91%
C[C@@]12SC[C@@H](C(=O)NCc3ccccc3)N1C(=O)c1ccccc12 [4bA] | 22.99 | 45.00 | 97.89 | 102.18 | 92.28 | 99.53 | 107.28 | 90.77 | 111.12 | 95.44 | 109.78 | 78.43 | 93.49 | 91.48 | 108.00 | 90.34 | 98.21 | 89.87 | 105.63 | 104.44 | Growth Percent (HCC-2998 (Colon Cancer)): 113.03%; Growth Percent (OVCAR-4 (Ovarian Cancer)): 102.82%; Growth Percent (TK-10 (Renal Cancer)): 85.29%; Growth Percent (786-0 (Renal Cancer)): 101.14%; Growth Percent (T-47D (Breast Cancer)): 90.12%; Growth Percent (UO-31 renal cancer cells): 99.51%; Growth Percent (SK-MEL-5 (Melanoma)): 102.19%; Growth Percent [5]: 78.86%
C[C@@]12SC[C@@H](C(=O)NCc3ccccc3Br)N1C(=O)c1ccccc12 [4bB] | 17.49 | 36.16 | 93.03 | 100.14 | 91.25 | 97.39 | 97.54 | 92.33 | 103.30 | 90.78 | 96.91 | 80.60 | 82.96 | 75.85 | 96.88 | 78.76 | 91.89 | 79.18 | 97.21 | 91.24 | Growth Percent (HCC-2998 (Colon Cancer)): 97.16%; Growth Percent (OVCAR-4 (Ovarian Cancer)): 80.04%; Growth Percent (TK-10 (Renal Cancer)): 99.69%; Growth Percent (786-0 (Renal Cancer)): 101.65%; Growth Percent (T-47D (Breast Cancer)): 83.93%; Growth Percent (UO-31 renal cancer cells): 86.71%; Growth Percent (SK-MEL-5 (Melanoma)): 90.98%; Growth Percent [5]: 77.15%
C[C@@]12SC[C@@H](C(=O)NCc3ccccc3C(F)(F)F)N1C(=O)c1ccccc12 [4bC] | 25.73 | 45.90 | 95.29 | 100.49 | 91.69 | 100.45 | 112.02 | 92.54 | 105.02 | 100.26 | 103.76 | 72.94 | 74.60 | 79.95 | 101.10 | 80.00 | 99.44 | 84.55 | 103.13 | 87.02 | Growth Percent (HCC-2998 (Colon Cancer)): 105.71%; Growth Percent (OVCAR-4 (Ovarian Cancer)): 93.35%; Growth Percent (TK-10 (Renal Cancer)): 92.04%; Growth Percent (786-0 (Renal Cancer)): 101.91%; Growth Percent (T-47D (Breast Cancer)): 86.40%; Growth Percent (UO-31 renal cancer cells): 91.39%; Growth Percent (SK-MEL-5 (Melanoma)): 100.19%; Growth Percent [5]: 69.56%
C[C@@]12SC[C@@H](C(=O)NCc3cccc(C(F)(F)F)c3)N1C(=O)c1ccccc12 [4bD] | 25.48 | 41.72 | 94.41 | 99.50 | 94.94 | 97.63 | 99.33 | 92.35 | 109.48 | 99.59 | 102.43 | 75.10 | 75.84 | 85.48 | 105.49 | 92.84 | 99.06 | 80.18 | 99.72 | 85.05 | Growth Percent (HCC-2998 (Colon Cancer)): 110.65%; Growth Percent (OVCAR-4 (Ovarian Cancer)): 89.60%; Growth Percent (TK-10 (Renal Cancer)): 101.65%; Growth Percent (786-0 (Renal Cancer)): 100.40%; Growth Percent (T-47D (Breast Cancer)): 89.18%; Growth Percent (UO-31 renal cancer cells): 81.22%; Growth Percent (SK-MEL-5 (Melanoma)): 101.35%; Growth Percent [5]: 77.57%
